Reference: patent US5512269A, “Method of treating retained pulmonary secretions” (priority 1993, dated 1996)

Experiments:
normal airway epithelium = test: Ussing chamber short circuit current (Isc) Cl- secretory response, normal airway epithelium primary cultures; format: cell-based, human
[1] = system: sheep airway surface liquid; conditions: sheep model, W. Mentz et al.; cited from earlier work
[2] = system: Mycobacterium tuberculosis 57778; format: cell-based; conditions: for susceptibility of strain 57778 to drug: streptomycin 6 μg/ml, isoniazid 0.2 μg/ml, rifampin 2 μg/ml, ethambutol 7.5 μg/ml
[3] = system: Mycobacterium tuberculosis 63169; format: cell-based; conditions: for susceptibility of strain 63169 to drug: streptomycin 6 μg/ml, isoniazid 0.2 μg/ml, rifampin 2 μg/ml, ethambutol 7.5 μg/ml
[4] = system: Mycobacterium tuberculosis 65021; format: cell-based; conditions: for susceptibility of strain 65021 to drug: streptomycin 6 μg/ml, isoniazid 0.2 μg/ml, rifampin 2 μg/ml, ethambutol 7.5 μg/ml
[5] = system: Mycobacterium tuberculosis drug sensitive laboratory strain; format: cell-based; conditions: for susceptibility of drug-sensitive laboratory strain to drug: streptomycin 6 μg/ml, isoniazid 0.2 μg/ml, rifampin 2 μg/ml, ethambutol 7.5 μg/ml
CF airway epithelium = conditions: 10^-6 M
Text: 1. Ussing Chamber Studies: The Cl^- secretory response to stimulation of normal and CF airway epithelium was studied under short circuit (Isc) conditions employing tissues mounted in Ussing chambers. Ussing chambers are well known in the art and the manner of their use in the present example would be readily apparent to one skilled in the art.

[6] = system: CFT43 cell line (intracellular cAMP); conditions: CFT43 cells, duramycin stimulation
Text: (§1) 4. Mechanisms of Action: Preliminary studies were also done investigating possible mechanisms of action.

[7] = system: CFT43 cell line (phospholipase C, inositol phosphates); conditions: CFT43 cells, duramycin stimulation
Text: as §1

[8] = system: canine trachea airway surface liquid; conditions: dog
Procedure: 1. The Animal Model: The model developed employed 30 kg male dogs that were anesthetized with intravenous pentobarbital and maintained on a intravenous infusion of normal saline at 75 cc/hour. The dogs were intubated. Ventilatory support was provided by a Harvard™ piston pump. Adequate ventilation and oxygenation were documented by arterial blood gas studies. Peak airway pressures (PAP) were measured and continuous monitoring of hemoglobin saturation was accomplished by pulse oximetry.
Drug and vehicle were delivered through the endotracheal tube. The drug was nebulized employing a Pulmo-Aid™ Compressor and a DeVilbiss™ nebulizer. The drug (50 μM; 3 ml) in a saline vehicle or the saline vehicle alone (control) was nebulized for 6 minutes during which 0.7 ml thereof was delivered to the animal. […] After 6 minutes, a clean and dry nebulizer was exchanged for the test nebulizer containing the drug or vehicle. The investigators were blinded as to whether drug or vehicle was given.
2. Measurements of airway fluid: Airway liquid measurements were made by applying dry preweighed filter paper to the cartilaginous portions of the airway for 20 seconds. This was accomplished employing transbronchial biopsy forceps to grasp the papers. The forceps and papers were stored in plastic catheters. Sampling the airway liquid was accomplished by first inserting the bronchoscope through the endotracheal tube. Care was taken not to allow contact between mucosa and the bronchoscope. The catheter containing the biopsy forceps and filter papers was introduced into the airway lumen through the channel in the bronchoscope. The biopsy forceps were then pushed out of the catheter and the filter papers gently applied to the mucosa. After 20 seconds the biopsy forceps and filter papers were pulled back into the catheter and removed through the bronchoscope for weighing. The filter papers were accessed for weighing by again pushing the forceps holding the filter paper out of the catheter. In order to account for evaporative losses from the filter papers when exposed to room air, the time required to place the papers on the scales and perform the initial weighing was recorded. Three subsequent weighings over time were then made. A regression line was calculated. The weight of the filter papers at time zero, that is when they were maximally wet, was defined as the time when the filter papers were pushed out of the catheter after having been applied to the airway mucosa. The amount of fluid on the filter paper was taken as the difference between the dry weight of the papers and their weight at time zero. Each set of samples to be compared were further corrected for differences in the initial weight of the dry filter papers.
The goal of the first protocol was to study the effects on airway surfaces liquid of (1) repeatedly sampling the airway, and (2) nebulizing the normal saline vehicle.
Protocol 1 required, immediately prior to conducting the test studies, weighing and loading the filter papers into catheters. Ten separate catheter-forceps-filter paper set-ups were available. Ten measurements of airway liquid were then made in different areas of the trachea over a thirty-minute period, with measurements made at three minute intervals. The catheters were then reloaded and the saline vehicle nebulized onto the airway. Ten more measurements of airway surface liquid were then made over another thirty minute period.
Protocol 2 required sampling the airway every four minutes to obtain 30 measurements of airway liquid. This required reloading the 10 catheters twice during each experiment. Each reloading required 20 minutes. This protocol allowed the airway to be sampled over 160 minutes. Drug and vehicle administration were separated by one week in any one animal.

Compound: Nc1ncnc2c1ncn2[C@@H]1O[C@H](COP(=O)(O)OP(=O)(O)OP(=O)(O)O)[C@@H](O)[C@H]1O [ATP, reference compound]
- time course of Cl- secretory response (Isc) (normal airway epithelium; comparison agonist): rapid onset of action and a rapid return to the baseline current

Compound: N=C(N)NC(=O)c1nc(Cl)c(N)nc1N [amiloride]
- increase in airway fluid after amiloride treatment [1]: ~50%

Compound: CC[C@@H](CO)NCCN[C@@H](CC)CO [ethambutol]
- susceptibility of strain 57778 to drug [2]: sensitive
- susceptibility of strain 63169 to drug [3]: sensitive
- susceptibility of strain 65021 to drug [4]: partially resistant
- susceptibility of drug-sensitive laboratory strain to drug [5]: sensitive

Compound: NNC(=O)c1ccncc1 [isoniazid]
- susceptibility of strain 57778 to drug [2]: resistant
- susceptibility of strain 63169 to drug [3]: resistant
- susceptibility of strain 65021 to drug [4]: resistant
- susceptibility of drug-sensitive laboratory strain to drug [5]: sensitive

Compound: CO[C@H]1/C=C/O[C@@]2(C)Oc3c(C)c(O)c4c(O)c(c(/C=N/N5CCN(C)CC5)c(O)c4c3C2=O)NC(=O)/C(C)=C\C=C\[C@H](C)[C@H](O)[C@@H](C)[C@@H](O)[C@@H](C)[C@H](OC(C)=O)[C@@H]1C [rifampin]
- susceptibility of strain 57778 to drug [2]: resistant
- susceptibility of strain 63169 to drug [3]: resistant
- susceptibility of strain 65021 to drug [4]: resistant
- susceptibility of drug-sensitive laboratory strain to drug [5]: sensitive

Compound: [H]/N=C(/N)N[C@H]1[C@H](O)[C@@H](O)[C@H](O[C@@H]2O[C@@H](C)[C@](O)(C=O)[C@H]2O[C@@H]2O[C@@H](CO)[C@H](O)[C@@H](O)[C@@H]2NC)[C@@H](N/C(N)=N\[H])[C@@H]1O [streptomycin]
- susceptibility of strain 57778 to drug [2]: resistant
- susceptibility of strain 63169 to drug [3]: sensitive
- susceptibility of strain 65021 to drug [4]: resistant
- susceptibility of drug-sensitive laboratory strain to drug [5]: sensitive

Compound: duramycin
- peak Isc (Cl- current) after duramycin (normal airway epithelium; 10^-6 M duramycin, normal tissues after amiloride and forskolin (10 μM), baseline 20 μA/cm^2 after amiloride): 50 μA/cm^2
- Cl- secretory response in normal tissue (normal airway epithelium; 10^-6 M, seven normal tissues): significant Cl^- secretory response
- Isc response to duramycin, control bathing solution (normal airway epithelium; 10^-6 M, solution containing both Na+ and Cl-): responded by increasing the Isc
- Isc response to duramycin, Cl- free bathing solution (normal airway epithelium; 10^-6 M, solution without Cl-): markedly attenuated response
- Isc response to duramycin, Na+ free bathing solution (normal airway epithelium; 10^-6 M, solution without Na+): responded by increasing the Isc
- concentration giving maximal response (normal airway epithelium; dose response study): 10^-6 M
- ED50 (normal airway epithelium; dose response study, Isc response): 0.3 µM
- duration of increase in Isc (Cl- secretory response) (normal airway epithelium; in some instances): > 1 h
- Cl- secretory response (change in Isc) in CF tissue relative to normal tissue (CF airway epithelium): approximately twice
- Cl- secretory response in CF tissue (CF airway epithelium; five CF tissues): significant Cl^- secretory response
- intracellular cAMP levels [6]: did not cause intracellular cAMP levels to rise
- inositol phosphates (IPs) produced [7]: no detectable amounts of IPs
- increase in amount of fluid recovered over baseline, Protocol 2 ([8]; 160 minutes, vehicle first then duramycin one week later): several-fold increase
- return of airway surface liquid to baseline ([8]; Protocol 1): did not return to baseline even two hours following its administration
- surface airway liquid after vehicle one week following duramycin ([8]; Protocol 2, duramycin given first): remained elevated
- amount of fluid recovered from the airway, Protocol 1 ([8]; nebulized duramycin, 30 minute measurement period): marked and sustained increase
- increase in airway surface liquid recovered compared to vehicle controls ([8]; vehicle first, p=0.0179 (paired), p=0.0335 (unpaired), n=6): significant
- average change in amount of fluid recovered ([8]; versus vehicle): doubling
- activity on growth (growth index over 12 days), strain 57778 ([2]; 100 μM duramycin): equally as effective as ethambutol
- activity on growth (growth index over 12 days), strain 63169 ([3]; 100 μM duramycin): approximately equal to that of the two drugs now known to be effective against this strain
- activity on growth (growth index over 12 days), strain 65021 ([4]; 100 μM duramycin): significantly more activity against this strain than any of the four traditional anti-tuberculosis drugs tested
- activity on growth (growth index over 12 days), drug-sensitive laboratory strain ([5]; 100 μM duramycin): less active in vitro than streptomycin, isoniazid, rifampin, or ethambutol
